Measurements taken from patent US5641760A, “Method of treating candida infection” (Pence, Inc., priority 1994, dated 1997).

How the values were obtained:
[1] = system: Candida albicans strain #40 fimbriae (enriched fimbriae EF, 66 kDa fimbrial subunit/adhesin protein); test: Thin-layer chromatography plate binding assay of fimbriae to glycosphingolipids; settings: 10 μg GSL per spot; 100 μg EF/ml; detected with mAb Fm16
Method: Bound fimbriae on the TLC plates were visualized with a Protein G affinity-purified anti-C. albicans fimbriae monoclonal antibody, Fm16, obtained from ascites tumor in Balb/c mice as described below and a goat anti-mouse IgG alkaline phosphatase. […] (Lane 2).
The thin-layer chromatography (TLC) plate binding assay was performed as described by Baker et al. (1) with minor modifications. Aluminum-backed silica gel Si60 high performance TLC plates (Merck Kieselgel Si60, no fluorescence indicator, E. Merck, Darmstadt, Germany) were cut to produce 8×2.5 cm plates which were chromatographed with 100% methanol to the top of the plate to remove impurities and the plates were air dried. Glycosphingolipids (GSLs) (10 μg of each GSL) were loaded 1.0 cm above the base of the plate. The following glycosphingolipids purchased from Sigma Co. (St. Louis, Mo.) were used: mono-sialoganglioside (M-GM1), asialoganglioside GM1 (asialo-GM1), asialoganglioside GM2 (asialo-GM2), lactosylcerebroside (LCS), ceramide trihexoside (CTH). GSLs were separated on the TLC plates in chloroform-methanol-water (65:35:8, v/v/v) and air dried. One set of plates was sprayed with 10% sulphuric acid in ethanol and heated at 100°-150° C. for 5-10 min to char the GSLs for visual detection, and the other set was used for the fimbrial binding assay. The four corners of the plate were bent to 90° and the remainder of the assay was done with the TLC plates inverted in all solutions and at room temperature in an incubator shaker (model G25 Gyroshaker, New Brunswick Scientific, New Jersey, U.S.A.) at 20 rpm agitation. The TLC plate was blocked with 50 mM tris-hydroxy-methyl aminomethane pH 7.5 containing 150 mM NaCl (TBS), 0.25% (w/v) gelatin, 3% (w/v) BSA, 5 mM EDTA and 0.05% (v/v) Nonidet P40 in a glass petri dish for 2 hr at room temperature. The blocking solution was aspirated and 10 ml of EF (100 μg EF/ml in 100 mM TBS, pH 7.5) was then added. The fimbriae were allowed to bind to GSLs for 2 hours at room temperature. The plates were gently washed (2×5 min) with 10 ml of 100 mM TBS containing 0.1% (v/v) Tween 20 (TBST). The murine anti-EF monoclonal antibody, Fm16, was diluted 1:200 with TBST and 10 ml was added to the TLC plates. The solution was incubated for 1 hour at room temperature. Unbound antibodies were removed by washing the plates with 10 ml of TBST (2×5 min). The plate was then incubated with 10 ml of goat anti-mouse immunoglobulin G alkaline phosphatase conjugate (Jackson Laboratories) diluted 1:5,000 with TBST for 1 hour at room temperature. The plates were washed (2×5 min.) with 10 ml of TBST. The alkaline phosphatase activity was localized with Nitro Blue Tetrazolium chloride (NBT) and 5-bromo-4-chloro-3-indolyl phosphate (BCIP) dissolved in 100 mM Tris buffer, pH 9.5 containing 100 mM NaCl and 5 mM MgCl2. Color development was quenched by rinsing the TLC plate with deionized water and submerging the plate into a 150 mM EDTA solution pH 8.0 for 3-5 min. The plates were air dried, stored in plastic in the dark until they were photographed.

[2] = system: Candida albicans strain #40 fimbriae (enriched fimbriae EF, 66 kDa fimbrial subunit/adhesin protein); test: Microtiter plate binding of fimbriae to immobilized glycosphingolipids; settings: GSL immobilized in microtiter wells (0.5 μg/well)
Method: Binding of Candida fimbriae to GSLs was further assessed using an assay in which GSLs were immobilized on microtiter plates. […] The amount of fimbriae bound is represented as the absorbance values measured at 405 nm. The concentration of fimbrial protein required for half-maximal binding was determined to be 8 μg/ml under the assay conditions, indicating a reasonably high affinity of fimbriae for asialo-GM1.
Polystyrene microtiter plate wells (Nunc) were coated with asialo-GM1 or ceramide trihexoside (CTH) (Sigma Chem. Co., St. Louis, Mo.). Aliquots of the GSLs (5 μg/ml resuspended in methanol) were added into the wells (100 μl/well) and the plates were incubated overnight at 4° C. The wells were washed three times with 250 μl/well of 10 mM phosphate buffered saline pH 7.4 containing 150 mM NaCl (PBS) supplemented with 0.05% (w/v) bovine serum albumin (Buffer A). […] Wells were washed 5 times with 250 μl/well of Buffer A. Antibody binding to EF was assessed by the addition of a goat anti-mouse heavy and light chain [IgG(H+L)] immunoglobulin G-peroxidase conjugates (Jackson Laboratories) to each well (100 μl/well) and incubated for 1 hour at 37° C. […] The reaction was stopped by an addition of 125 μl/well of 4 mM sodium azide and the absorbance at 405 nm was recorded.

Substance | Binding of C. albicans fimbriae to glycosphingolipid on TLC plate [1] | Binding of fimbriae to glycosphingolipid coated on wells ([2]; EF 0 to 40 μg protein/ml) | Concentration of fimbrial protein required for half-maximal binding ([2]; the concentration is that of fimbrial protein)
ceramide trihexoside [CTH, ceramide trihexoside [aGal(1-4)βGal(1-4)βGlc(1-1)Cer]] | failed to bind | failed to bind | 
gangliotetraosylceramide: βGal(1-3)βGalNAc(1-4)βGal(1-4)βGlc(1-1)Cer [asialo-GM1] | bind specifically |  | 8 µg/mL
